In this data set the test system is excised cultured porcine corneas. Particulars: pig, 5 min, 100 %.

Description: The toxicological ocular irritation and recovery testing procedure is conducted on excised corneas (53), FIG. 7, according to the following steps. • a) The toxicological ocular irritation and recovery testing procedure begins approximately 24 hours after the corneas are excised. This allows the corneas to be placed in a custom culture media (55) to equilibrate to the culture conditions for 24 hours (57). […] Unsuccessfully treated corneas are discarded (73). • j) The toxicity of the test material is determined by measuring cell vitality, death, or impairment in the cultured corneal tissue via confocal microscopy paired with various vital dyes, whether colored or fluorescent. […]
Also further included is a method for measuring cell death or impairment with NaFL in the cultured corneal tissue according to the following steps. • i) On days “1”, “2”, “3”, “7”, “10”, “14”, and “21” of the toxicological ocular irritation and recovery testing procedure, the percentage of damaged corneal tissue area is determined by staining with 2% sodium fluorescein (NaFL) stain as in the Draize rabbit eye test. • ii) The culture media is examined microscopically throughout the toxicological ocular irritation and recovery testing procedure for presence of contamination.

On to `CCO` [ethanol], for which the “time in culture at which dosed corneas no longer retain NaFL stain (recovery)” value is 3 to 10 days.

The values above are taken from patent US20100120013A1, “PROCEDURE FOR LONG TERM CORNEAL CULTURE” (MB RESEARCH LABORATORIES, INC., priority 2008, published 2010).
